Data reported in patent US10022328B2, “Dialkyl sulfosuccinate compositions, method of making, and method of use” (CYTEC INDUSTRIES INC., priority 2015, dated 2018).

experiment: Contact angle of excipient solution in 0.1 M HCl with API pellet (sessile drop); format: physicochemical; conditions: 0.1% excipient in 0.1 M HCl, 10-μL drops on pressed API pellet
Excerpt: A factor which contributes to the bioavailability of active pharmaceutical ingredients (API's) is the wetting of the API by an aqueous solution at a physiological pH. Wetting can affect dissolution rates of the API in the aqueous solution. Wetting can be assessed by measuring the contact angle between an aqueous solution and an API. In these examples, the sessile drop method was used to determine contact angles. Pellets of API were produced using an X-press 3630 with a 35-mm pressing die. The API was pressed into a 35-mm diameter aluminum pan using the standard 30-ton cycle in order to produce a flat surface. Drops (10-μL) of a 0.1% test solution of an excipient were used. The test solution was 0.1 M HCl, to simulate physiological conditions in the human stomach.

Which “Contact Angle with Fenofibrate” value does the source give for `CCCCCCCCCCCCOS(=O)(=O)[O-].[Na+]` [SLS, Sodium lauryl sulfate] here?
The value was 47 °.

And the “Contact Angle with Glipizide” value?
Its value is 43 °.

And the “Contact Angle with Ibuprofen” value?
Its value is 54 °.

What about the “Contact Angle with Naproxen” value of the same compound?
Its value is 34 °.

And the “Contact Angle with Ritonavir” value?
Its value is 57 °.

Which “Contact Angle with Fenofibrate” value does the source give for “Polyoxyethylene (20) sorbitan monolaurate [TWEEN ™ 20]” here?
Its value is 58 °.

What about the “Contact Angle with Glipizide” value of the same compound?
The value was 42 °.

What about the “Contact Angle with Ibuprofen” value of the same compound?
The value was 45 °.

And the “Contact Angle with Naproxen” value?
The value was 48 °.

What about the “Contact Angle with Ritonavir” value of the same compound?
The value was 40 °.

Which “Contact Angle with Fenofibrate” value does the source give for “Polyoxyethylene (20) sorbitan monooleate [TWEEN ™ 80]” here?
The value was 70 °.

And the “Contact Angle with Glipizide” value?
The value was 55 °.

And the “Contact Angle with Ibuprofen” value?
Its value is 68 °.

What about the “Contact Angle with Naproxen” value of the same compound?
The value was 52 °.

And the “Contact Angle with Ritonavir” value?
Its value is 51 °.
